Data on 8 molecules can be found in ChEMBL document CHEMBL1129166, “Design and synthesis of novel, pseudo C2 symmetric inhibitors of HIV protease” (Bioorg Med Chem Lett, 1996).

Assay [1] concerns the target Human immunodeficiency virus type 1 protease (Human immunodeficiency virus 1, UniProt Q72874). The assay is described as follows: Compound was evaluated for the inhibition of HIV protease.
For assay [2], the target named is Human immunodeficiency virus type 1 protease (Human immunodeficiency virus 1) (UniProt Q72874). The experiment in a line: Compound was evaluated for the inhibition of HIV protease at 0.5 uM.

The IC50 is the concentration at which inhibition is half-maximal. A low value points to higher potency. `CC(C)C(NC(=O)OCc1ccccc1)C(=O)N[C@H](CC[C@@H](O)[C@H](Cc1ccccc1)NC(=O)C(NC(=O)OCc1ccccc1)C(C)C)Cc1ccccc1` (stereo not given in full): in assay [1], the IC50 came to 200 nM. Still for that read-out and setting: with `O=C(Nc1ccccc1C(=O)N[C@H](CC[C@H](O)[C@H](Cc1ccccc1)NC(=O)c1ccccc1NC(=O)OCc1ccccn1)Cc1ccccc1)OCc1ccccn1` the figure was 14 nM. As usually defined, the inhibition is the share of the control response that was lost under treatment. Lower therefore signals a response near the control. For `CC(C)[C@H](NC(=O)N(C)Cc1ccccn1)C(=O)N[C@@H](Cc1ccccc1)[C@H](O)[C@H](O)[C@H](Cc1ccccc1)NC(=O)[C@@H](NC(=O)N(C)Cc1ccccn1)C(C)C` [A-77003], the IC50 in assay [1] is more than 1 nM. Also, in assay [2], the inhibition amounted to 57%. On to `CC(C)C(NC(=O)OCc1ccccc1)C(=O)N[C@@H](Cc1ccccc1)CC(C[C@H](Cc1ccccc1)NC(=O)C(NC(=O)OCc1ccccc1)C(C)C)[N+](=O)[O-]` (stereo not given in full), for which half-maximal inhibition in assay [1] (IC50) was put at 1500 nM.

In assay [1], `CC(C)C(NC(=O)OCc1ccccc1)C(=O)N[C@H](CC[C@H](O)[C@H](Cc1ccccc1)NC(=O)C(NC(=O)OCc1ccccc1)C(C)C)Cc1ccccc1` (stereo not given in full) returned an IC50 of more than 1 nM. In assay [2], this molecule yielded an inhibition of 62%. In assay [1], `O=C(N[C@H](CC[C@H](O)[C@H](Cc1ccccc1)NC(=O)c1ccccc1NS(=O)(=O)c1ccccn1)Cc1ccccc1)c1ccccc1NS(=O)(=O)c1ccccn1` yielded an IC50 of more than 3000 nM. The same measure, in the same setting: to `CC(C)[C@H](NC(=O)OCc1ccccc1)C(=O)N[C@@H](Cc1ccccc1)CC1(C[C@H](Cc2ccccc2)NC(=O)[C@@H](NC(=O)OCc2ccccc2)C(C)C)CCC(=O)N1` belongs 2700 nM; to `CC(C)(C)OC(=O)N[C@H](CC[C@H](O)[C@H](Cc1ccccc1)NC(=O)OC(C)(C)C)Cc1ccccc1`, 380 nM.
